Data on 3 compounds can be found in patent publication US20100324138A1, “Lipoxin A4 Protection for Retinal Cells” (priority 2007, published 2010).

The test system of data set [1] is ARPE-19 cells. Put plainly: Inhibition of apoptosis induced by oxidative stress (TNF-α/H2O2) in RPE cells, Hoechst staining. Conditions: TNF-α 10 ng/ml + H2O2 600 uM, 14 h, FIG. 1. The format is cell-based, human. The procedure: (§1) ARPE-19 cells (L. M. Hjelmeland, ATCC #CRL-2302) were grown and maintained in DMEM-F12 medium supplemented with 10% FBS and incubated at 37° C. with a constant supply of 5% CO2. ARPE-19 cells are spontaneously transformed human retinal pigment epithelial cells that conserve cellular biological and functional properties. All chemicals were purchased from Sigma Chemical Co. (St. Louis, Mo.) unless otherwise indicated.
ARPE-19 cells growing in DMEM-F-12 medium for 72 h were serum starved for 8 h before induction of oxidative stress, as described in P. K. Mukherjee et al., “Photoreceptor outer segment phagocytosis attenuates oxidative stress-induced apoptosis with concomitant neuroportectin D1 synthesis,” PNAS, vol. 104, pp. 13158-13163 (2007). Oxidative stress was introduced by TNF-α (10 ng/ml) and H2O2 (600 uM) for 14 h and challenged with different concentrations of either lipoxin-A4 or lipoxin A4 epimer 15 (10 nM, 50 nM, and 100 nM; Calbiochem, Madison, Wis.), as indicated in FIG. 1. In initial experiments to test whether lipoxin caused stress, lipoxin A4 and lipoxin A4 epimer 15 were added to RPE cells in which oxidative stress had not been induced with TNF-α or H2O2. The apoptotic cell death was scored by Hoechst staining, as described in Mukherjee et al., 2007. The results were expressed as percentage inhibition of apoptosis by counting the Hoechst positive cells, and are shown in FIG. 1.

For data set [2], the system named is ARPE-19 cells. Put plainly: Apoptosis in RPE cells in which oxidative stress had not been induced (test whether lipoxin caused stress), Hoechst staining. The format is cell-based. The procedure:
as §1
ARPE-19 cells growing in DMEM-F-12 medium for 72 h were serum starved for 8 h before induction of oxidative stress, as described in P. K. Mukherjee et al., “Photoreceptor outer segment phagocytosis attenuates oxidative stress-induced apoptosis with concomitant neuroportectin D1 synthesis,” PNAS, vol. 104, pp. 13158-13163 (2007). Oxidative stress was introduced by TNF-α (10 ng/ml) and H2O2 (600 uM) for 14 h and challenged with different concentrations of either lipoxin-A4 or lipoxin A4 epimer 15 (10 nM, 50 nM, and 100 nM; Calbiochem, Madison, Wis.), as indicated in FIG. 1. […] The apoptotic cell death was scored by Hoechst staining, as described in Mukherjee et al., 2007. The results were expressed as percentage inhibition of apoptosis by counting the Hoechst positive cells, and are shown in FIG. 1.

For data set [3], the system named is ARPE-19 cells. Put plainly: Lipoxins and NPD1 combined effect on apoptosis induced by oxidative stress in RPE cells. The data set is classed as cell-based, human. The note with it: NPD1 30 nM with lipoxin A4 or its analog 100 nM, 14 h; FIG. 2. The procedure: The growth of RPE cells, serum starvation, and induction of apoptosis were the same as described above in Example 1 and in Mukherjee et al., 2007. To test for a synergistic effect between lipoxin A4 and […] (NPD1), the oxidative-stressed RPE cells were treated with NPD1 (30 nM) and with lipoxin A4 or its analog (100 nM) for 14 h as indicated in FIG. 2. The percent apoptosis is expressed as described above in Example 1 as a percentage of the Hoechst positive cells.

The test system of a further data set is COX-2 promoter construct. As to the kind of experiment: Interleukin-1β induced COX-2 promoter construct (huCOX-2-LUC) luciferase assay in RPE cells. The data set is classed as cell-based, human. Conditions: IL-1β 10 ng/ml, 14 h. The procedure:
COX-2 is a proinflammatory protein that participates in RPE cell injury. ARPE-19 cells were grown over night in six well plates and then transfected with huCOX-2-LUC (−830) promoter construct (5 ug) for 24 h. Transfected cells were serum starved for 8 h before the addition of IL-1β (10 ng/ml). IL-1β treated cells were challenged with 100 nM, 500 nM, and 1000 nM concentrations of lipoxin A4 and lipoxin A4 epimer 15 for 14 h. Cells were then harvested, and luciferase assays were performed using luciferin as substrate.

Setting [4] is: 100, 500, 1000 nM, luciferase, FIG. 3.

Where two headings read alike, the source gives them in different places.

Take `CCCCC[C@H](O)/C=C/C=C\C=C\C=C\[C@@H](O)[C@@H](O)CCCC(=O)O` [lipoxin A4]: the “inhibition of apoptosis in RPE cells under oxidative stress” value in the data set on ARPE-19 cells [1] (100 nM) is “highest inhibition”; with ARPE-19 cells [1] (10, 50, 100 nM), “able to inhibit apoptosis in RPE cells in a concentration-dependent manner”. Also, the “induction of apoptosis in RPE cells” value with ARPE-19 cells [2] was “did not induce apoptosis”. Besides, in the data set with ARPE-19 cells [3], the “effect of lipoxin combined with NPD1 on oxidative stress-induced apoptosis” value is listed as “additive”. The figures for the “inhibition of IL-1β mediated induction of COX-2 promoter construct” value in the data set on COX-2 promoter construct (100 nM (lowest inhibition)), with COX-2 promoter construct (1000 nM) and in the data set on COX-2 promoter construct (setting [4]) were 35%, “highest” and “inhibit IL-1β mediated induction of COX-2 promoter construct in RPE cells in a concentration-dependent manner”, respectively.

As to `CC/C=C\C[C@H](O)\C=C/C=C/C=C/[C@H](O)C/C=C\C/C=C\CCC(=O)O` [NPD1, neuroprotectin D1, reference compound], in the data set with ARPE-19 cells [3], the “effect of lipoxin combined with NPD1 on oxidative stress-induced apoptosis” value is reported as “additive”.

`CCCCC[C@@H](O)/C=C/C=C\C=C\C=C\[C@@H](O)[C@@H](O)CCCC(=O)O` (single isomer, unassigned; epimer 15) [lipoxin A4 epimer 15, 15-epi-lipoxin A4]: the “inhibition of apoptosis in RPE cells under oxidative stress” value with ARPE-19 cells [1] (100 nM) is “highest inhibition”; with ARPE-19 cells [1] (10, 50, 100 nM), “able to inhibit apoptosis in RPE cells in a concentration-dependent manner”. Moreover, the “induction of apoptosis in RPE cells” value in the data set with ARPE-19 cells [2] (no oxidative stress (no TNF-α or H2O2), Hoechst positive cells, FIG. 1) is reported as “did not induce apoptosis”. Also, the entries for the “inhibition of IL-1β mediated induction of COX-2 promoter construct” value with COX-2 promoter construct (100 nM (lowest inhibition)), in the data set with COX-2 promoter construct (1000 nM) and with COX-2 promoter construct (setting [4]) were 35%, “highest” and “inhibit IL-1β mediated induction of COX-2 promoter construct in RPE cells in a concentration-dependent manner”, respectively.
